Laboratory results: patent US20260262643A1, “HERBICIDAL BENZOXAZINES” (FMC CORPORATION, priority 2022, published 2026)
Like-named read-outs stand apart in the source and are kept apart here.

Tests used:
rice = assay: Test B flooded paddy test; type: in vivo, Oryza sativa; conditions: Oryza sativa, 312 h; 250 g ai/ha, Flood, 13 days, 0 to 100 scale (0 no effect, 100 complete control); read-out: Plant response rating, Rice
Summary of the method: (§1)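 Each species was raised to the 2-leaf stage. At treatment, each pot received floodwater 3 cm deep, with the chemical delivered into the water. Greenhouse holding followed for 13 days, then percent control was estimated visually versus untreated pots.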

corn = assay: Test A postemergence; type: in vivo, Zea mays; conditions: Zea mays, post-emergence, 240 h, postemergence, 10 days, 0 to 100 scale (0 no effect, 100 complete control); for plant injury at 125 g/ha: 125 g ai/ha, read-out: Corn plant response rating; for Corn plant response rating (crop injury, 0 = no effect, 100 = complete kill) at 500 g/ha: 500 g ai/ha, visual injury
Summary of the method: (§2)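 Weeds and crops in loam–sand blend were sprayed preemergence onto soil or postemergence at 2–10 cm (one- to two-leaf stage). Test chemicals were in a non-phytotoxic solvent with surfactant. After 10 days in the greenhouse, injury was rated visually against untreated controls on a 0 (no effect) to 100 (complete control) scale.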

blackgrass [1] = assay: Test A preemergence; type: in vivo, Alopecurus myosuroides; conditions: Alopecurus myosuroides, pre-emergence, 240 h, read-out: Plant response rating, Blackgrass; for pest or weed control at 125 g/ha: 125 g ai/ha; for pest or weed control at 500 g/ha: 500 g ai/ha
Summary of the method: as §2

kochia [2] = assay: Test A postemergence; type: in vivo, Bassia scoparia; conditions: Bassia scoparia, post-emergence, 240 h, postemergence, 10 days, 0 to 100 scale (0 no effect, 100 complete control); for pest or weed control at 125 g/ha: 125 g ai/ha, read-out: Kochia plant response rating; for pest or weed control at 500 g/ha: 500 g ai/ha, visual injury, read-out: Plant response rating, Kochia
Summary of the method: as §2

kochia [3] = assay: Test A preemergence; type: in vivo, Bassia scoparia; conditions: Bassia scoparia, pre-emergence, 240 h, read-out: Plant response rating, Kochia; for pest or weed control at 125 g/ha: 125 g ai/ha; for pest or weed control at 500 g/ha: 500 g ai/ha
Summary of the method: as §2

barnyardgrass = assay: Test B flooded paddy test; type: in vivo, Echinochloa crus-galli; conditions: Echinochloa crus-galli, 312 h, 250 g ai/ha, Flood, 13 days, 0 to 100 scale (0 no effect, 100 complete control); read-out: Plant response rating, Barnyardgrass
Summary of the method: as §1

pigweed, palmer = assay: Test A postemergence; type: in vivo, Amaranthus palmeri; conditions: Amaranthus palmeri, post-emergence, 240 h, postemergence, 10 days, 0 to 100 scale (0 no effect, 100 complete control); for pest or weed control at 125 g/ha: 125 g ai/ha, read-out: Pigweed, Palmer plant response rating; for pest or weed control at 500 g/ha: 500 g ai/ha, visual injury, read-out: Plant response rating, Pigweed, Palmer
Summary of the method: as §2

blackgrass [4] = assay: Test A postemergence; type: in vivo, Alopecurus myosuroides; conditions: Alopecurus myosuroides, post-emergence, 240 h, postemergence, 10 days, 0 to 100 scale (0 no effect, 100 complete control); for pest or weed control at 125 g/ha: 125 g ai/ha, read-out: Blackgrass plant response rating; for pest or weed control at 500 g/ha: 500 g ai/ha, visual injury, read-out: Plant response rating, Blackgrass
Summary of the method: as §2

horseweed = assay: Test A postemergence; type: in vivo, Erigeron canadensis; conditions: Erigeron canadensis, post-emergence, 240 h, postemergence, 10 days, 0 to 100 scale (0 no effect, 100 complete control); for pest or weed control at 125 g/ha: 125 g ai/ha, read-out: Horseweed plant response rating; for pest or weed control at 500 g/ha: 500 g ai/ha, visual injury, read-out: Plant response rating, Horseweed
Summary of the method: as §2

ryegrass, Italian = assay: Test A preemergence; type: in vivo, Lolium multiflorum; conditions: Lolium multiflorum, pre-emergence, 240 h, read-out: Plant response rating, Ryegrass, Italian; for pest or weed control at 125 g/ha: 125 g ai/ha; for pest or weed control at 500 g/ha: 500 g ai/ha
Summary of the method: as §2

oat, wild = assay: Test A preemergence; type: in vivo, Avena fatua; conditions: Avena fatua, pre-emergence, 240 h, read-out: Plant response rating, Oat, Wild; for pest or weed control at 125 g/ha: 125 g ai/ha; for pest or weed control at 500 g/ha: 500 g ai/ha
Summary of the method: as §2

ducksalad = assay: Test B flooded paddy test; type: in vivo, Heteranthera limosa; conditions: Heteranthera limosa, 312 h, 250 g ai/ha, Flood, 13 days, 0 to 100 scale (0 no effect, 100 complete control); read-out: Plant response rating, Ducksalad
Summary of the method: as §1

goosegrass = assay: Test A preemergence; type: in vivo, Eleusine indica; conditions: Eleusine indica, pre-emergence, 240 h, read-out: Plant response rating, Goosegrass; for pest or weed control at 125 g/ha: 125 g ai/ha; for pest or weed control at 500 g/ha: 500 g ai/ha
Summary of the method: as §2

foxtail, giant = assay: Test A preemergence; type: in vivo, Setaria faberi; conditions: Setaria faberi, pre-emergence, 240 h, read-out: Plant response rating, Foxtail, Giant; for pest or weed control at 125 g/ha: 125 g ai/ha; for pest or weed control at 500 g/ha: 500 g ai/ha
Summary of the method: as §2

[5] = visual injury after 10 days, 0 to 100 scale, 0 is no effect, 100 is complete control
[6] = 0 to 100 scale (0 no effect, 100 complete control), 10 days

CCc1ccc(-n2cnc(C(C)C)n2)cc1C(=O)N1C[C@H](C)Oc2c(Cl)cccc21 [Compound 94, [(2S)-8-Chloro-2,3-dihydro-2-methyl-4H-1,4-benzoxazin-4-yl][2-ethyl-5-[3-(1-methylethyl)-1H-1,2,4-triazol-1-yl]phenyl]methanone]
plant injury at 250 g/ha (rice): 0%
plant injury at 125 g/ha (corn): 80%
Corn plant response rating (crop injury, 0 = no effect, 100 = complete kill) at 500 g/ha (corn): 90%
pest or weed control at 125 g/ha (blackgrass [1]; [5]): 90%
pest or weed control at 500 g/ha (blackgrass [1]; [6]): 90%
pest or weed control at 125 g/ha (kochia [2]): 100%
pest or weed control at 500 g/ha (kochia [2]): 100%
pest or weed control at 125 g/ha (kochia [3]; [5]): 90%
pest or weed control at 500 g/ha (kochia [3]; [6]): 100%
pest or weed control at 250 g/ha (barnyardgrass): 30%
pest or weed control at 125 g/ha (pigweed, palmer): 90%
pest or weed control at 500 g/ha (pigweed, palmer): 90%
pest or weed control at 125 g/ha (blackgrass [4]): 60%
pest or weed control at 500 g/ha (blackgrass [4]): 90%
pest or weed control at 125 g/ha (horseweed): 0%
pest or weed control at 500 g/ha (horseweed): 50%
pest or weed control at 125 g/ha (ryegrass, Italian; [5]): 90%
pest or weed control at 500 g/ha (ryegrass, Italian; [6]): 100%
pest or weed control at 125 g/ha (oat, wild; [5]): 40%
pest or weed control at 500 g/ha (oat, wild; [6]): 90%
pest or weed control at 250 g/ha (ducksalad): 70%
pest or weed control at 125 g/ha (goosegrass; [5]): 100%
pest or weed control at 500 g/ha (goosegrass; [6]): 100%
pest or weed control at 125 g/ha (foxtail, giant; [5]): 100%
pest or weed control at 500 g/ha (foxtail, giant; [6]): 100%

Cc1cccc2c1O[C@@H](C)CN2C(=O)c1cccc(-n2cnn(C)c2=O)c1 [Compound 117, 4-[3-[[(2S)-2,3-Dihydro-2,8-dimethyl-4H-1,4-benzoxazin-4-yl]carbonyl]phenyl]-2,4-dihydro-2-methyl-3H-1,2,4-triazol-3-one]
plant injury at 250 g/ha (rice): 0%
plant injury at 125 g/ha (corn): 0%
Corn plant response rating (crop injury, 0 = no effect, 100 = complete kill) at 500 g/ha (corn): 50%
pest or weed control at 125 g/ha (blackgrass [1]; [5]): 30%
pest or weed control at 500 g/ha (blackgrass [1]; [5]): 90%
pest or weed control at 125 g/ha (kochia [2]): 30%
pest or weed control at 500 g/ha (kochia [2]): 70%
pest or weed control at 125 g/ha (kochia [3]; [5]): 0%
pest or weed control at 500 g/ha (kochia [3]; [5]): 60%
pest or weed control at 250 g/ha (barnyardgrass): 0%
pest or weed control at 125 g/ha (pigweed, palmer): 10%
pest or weed control at 500 g/ha (pigweed, palmer): 30%
pest or weed control at 125 g/ha (blackgrass [4]): 50%
pest or weed control at 500 g/ha (blackgrass [4]): 90%
pest or weed control at 125 g/ha (horseweed): 0%
pest or weed control at 500 g/ha (horseweed): 10%
pest or weed control at 125 g/ha (ryegrass, Italian; [5]): 40%
pest or weed control at 500 g/ha (ryegrass, Italian; [5]): 100%
pest or weed control at 125 g/ha (oat, wild; [5]): 20%
pest or weed control at 500 g/ha (oat, wild; [5]): 70%
pest or weed control at 250 g/ha (ducksalad): 0%
pest or weed control at 125 g/ha (goosegrass; [5]): 50%
pest or weed control at 500 g/ha (goosegrass; [5]): 100%
pest or weed control at 125 g/ha (foxtail, giant; [5]): 60%
pest or weed control at 500 g/ha (foxtail, giant; [5]): 90%
